Key:
Format in all cases: in vivo
[1] = tested on: pigweed (Amaranthus retroflexus); assay: Test A greenhouse herbicide test, pre- and postemergence
How it was run: (§1)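 Visual injury ratings, 0 (no effect) to 100 (complete control), versus untreated plants after roughly 10 d in a greenhouse. Compounds, formulated in a surfactant-containing non-phytotoxic solvent, were sprayed on loam–sand soil after sowing (pre) or on one- to two-leaf plants 2–10 cm tall (post).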

[2] = tested on: ryegrass, Italian (Italian ryegrass, Lolium multiflorum); assay: as above
How it was run: as §1

[3] = tested on: wheat (Triticum aestivum); assay: as above; settings: Postemergence
How it was run: as §1

[4] = tested on: blackgrass (Alopecurus myosuroides); assay: Test A greenhouse herbicide test, postemergence; settings: for Plant response rating, Blackgrass: 125 g ai/ha, 0 to 100 scale where 0 is no effect and 100 is complete control; for Blackgrass plant response rating: 500 g ai/ha, 0 to 100 scale, 0 is no effect, 100 is complete control
How it was run: (§2)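 Seedlings in a loam soil and sand mix received formulated compound postemergence at the one- to two-leaf stage. Greenhouse holding lasts approximately 10 d, then injury is scored visually relative to untreated plants, 0 meaning no effect and 100 complete control.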

[5] = tested on: galium (catchweed bedstraw, Galium aparine); assay: Test A greenhouse herbicide test, postemergence
How it was run: as §2

[6] = tested on: lambsquarters (Chenopodium album); assay: Test C greenhouse herbicide test, pre- and postemergence
How it was run: (§3)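 Visual 0–100 injury score (100 = complete control) taken against untreated controls after 13–15 d in greenhouse. Test chemicals, formulated in solvent plus surfactant, applied preemergence to seeds in loam–sand soil or postemergence to 1- to 4-leaf plants (2–18 cm).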

[7] = tested on: morningglory (Ipomoea coccinea); assay: as above
How it was run: as §3

[8] = tested on: oilseed rape (Brassica napus); assay: as above
How it was run: as §3

[9] = tested on: pigweed (Amaranthus retroflexus); assay: as above
How it was run: as §3

[10] = tested on: ragweed (common ragweed, Ambrosia elatior); assay: as above
How it was run: as §3

[11] = tested on: waterhemp (common waterhemp, Amaranthus rudis); assay: as above
How it was run: as §3

[12] = Postemergence, 125 g ai/ha, 0 to 100 scale where 0 is no effect and 100 is complete control
[13] = Postemergence, 500 g ai/ha, visual rating after approx. 10 d, 0 to 100 scale (0 no effect, 100 complete control)
[14] = Preemergence, 125 g ai/ha, 0 to 100 scale where 0 is no effect and 100 is complete control
[15] = Preemergence, 500 g ai/ha, 0 to 100 scale where 0 is no effect and 100 is complete control
[16] = 125 g ai/ha, 0 to 100 scale where 0 is no effect and 100 is complete control
[17] = 500 g ai/ha, visual rating after approx. 10 d, 0 to 100 scale (0 no effect, 100 complete control)
[18] = Postemergence, 31 g ai/ha, scale 0 to 100 (0 no effect, 100 complete control)
[19] = Postemergence, 125 g ai/ha, scale 0 to 100, 0 is no effect, 100 is complete control
[20] = Postemergence, 250 g ai/ha, scale 0 to 100, 0 no effect, 100 complete control, 13 to 15 d
[21] = Preemergence, 31 g ai/ha, scale 0 to 100, 0 is no effect, 100 is complete control
[22] = Preemergence, 62 g ai/ha, scale 0 to 100, 0 is no effect, 100 is complete control
[23] = Preemergence, 125 g ai/ha, scale 0 to 100, 0 is no effect, 100 is complete control
[24] = Preemergence, 250 g ai/ha, scale 0 to 100, 0 no effect, 100 complete control

SMILES: CCCC(=O)Oc1c(C)nn(C)c(=O)c1-c1c(CC)sc2ccc(C)cc12 [Compound 107]
- Plant response rating, Pigweed [1, 12]: 90
- Plant response rating, Pigweed [1, 13]: 90
- Pigweed plant response rating [1, 14]: 100
- Plant response rating, Pigweed [1, 15]: 100
- Plant response rating, Ryegrass, Italian [2, 12]: 60
- Plant response rating, Ryegrass, Italian [2, 13]: 90
- Ryegrass, Italian plant response rating [2, 14]: 80
- Plant response rating, Ryegrass, Italian [2, 15]: 100
- Plant response rating, Wheat [3, 16]: 30
- Plant response rating, Wheat [3, 17]: 20
- Plant response rating, Blackgrass [4]: 80
- Blackgrass plant response rating [4]: 90
- Plant response rating, Galium [5, 16]: 100
- Plant response rating, Galium [5, 17]: 100
- Plant response rating, Lambsquarters [6, 18]: 85
- Plant response rating, Lambsquarters [6, 19]: 90
- Plant response rating, Lambsquarters [6, 20]: 98
- Plant response rating, Lambsquarters [6, 21]: 90
- Plant response rating, Lambsquarters [6, 22]: 100
- Plant response rating, Lambsquarters [6, 23]: 95
- Lambsquarters plant response rating [6, 24]: 95
- Plant response rating, Morningglory [7, 18]: 95
- Plant response rating, Morningglory [7, 19]: 98
- Plant response rating, Morningglory [7, 20]: 100
- Plant response rating, Morningglory [7, 21]: 80
- Plant response rating, Morningglory [7, 22]: 85
- Plant response rating, Morningglory [7, 23]: 95
- Morningglory plant response rating [7, 24]: 98
- Plant response rating, Oilseed Rape [8, 18]: 25
- Plant response rating, Oilseed Rape [8, 19]: 80
- Plant response rating, Oilseed Rape [8, 20]: 45
- Plant response rating, Oilseed Rape [8, 21]: 0
- Plant response rating, Oilseed Rape [8, 22]: 0
- Plant response rating, Oilseed Rape [8, 23]: 20
- Oilseed Rape plant response rating [8, 24]: 80
- Plant response rating, Pigweed [9, 18]: 85
- Plant response rating, Pigweed [9, 19]: 98
- Plant response rating, Pigweed [9, 20]: 98
- Plant response rating, Pigweed [9, 21]: 100
- Plant response rating, Pigweed [9, 22]: 100
- Plant response rating, Pigweed [9, 23]: 100
- Pigweed plant response rating [9, 24]: 100
- Plant response rating, Ragweed [10, 18]: 85
- Plant response rating, Ragweed [10, 19]: 98
- Plant response rating, Ragweed [10, 20]: 98
- Plant response rating, Ragweed [10, 21]: 75
- Plant response rating, Ragweed [10, 22]: 90
- Plant response rating, Ragweed [10, 23]: 85
- Ragweed plant response rating [10, 24]: 100
- Plant response rating, Waterhemp [11, 18]: 75
- Plant response rating, Waterhemp [11, 19]: 95
- Plant response rating, Waterhemp [11, 20]: 90
- Plant response rating, Waterhemp [11, 21]: 75
- Plant response rating, Waterhemp [11, 22]: 75
- Plant response rating, Waterhemp [11, 23]: 95
- Waterhemp plant response rating [11, 24]: 98

SMILES: CC(=O)Oc1c(C)nn(C)c(=O)c1-c1c(C)sc2ccc(Cl)cc12 [Compound 108]
- Plant response rating, Pigweed [1, 12]: 90
- Plant response rating, Pigweed [1, 13]: 100
- Pigweed plant response rating [1, 14]: 100
- Plant response rating, Pigweed [1, 15]: 100
- Plant response rating, Ryegrass, Italian [2, 12]: 100
- Plant response rating, Ryegrass, Italian [2, 13]: 100
- Ryegrass, Italian plant response rating [2, 14]: 100
- Plant response rating, Ryegrass, Italian [2, 15]: 100
- Plant response rating, Wheat [3, 16]: 0
- Plant response rating, Wheat [3, 17]: 20
- Plant response rating, Blackgrass [4]: 80
- Blackgrass plant response rating [4]: 90
- Plant response rating, Galium [5, 16]: 100
- Plant response rating, Galium [5, 17]: 100
- Plant response rating, Lambsquarters [6, 18]: 90
- Plant response rating, Lambsquarters [6, 19]: 98
- Plant response rating, Lambsquarters [6, 20]: 98
- Plant response rating, Lambsquarters [6, 21]: 85
- Plant response rating, Lambsquarters [6, 22]: 90
- Plant response rating, Lambsquarters [6, 23]: 90
- Lambsquarters plant response rating [6, 24]: 100
- Plant response rating, Morningglory [7, 18]: 98
- Plant response rating, Morningglory [7, 19]: 98
- Plant response rating, Morningglory [7, 20]: 100
- Plant response rating, Morningglory [7, 21]: 80
- Plant response rating, Morningglory [7, 22]: 90
- Plant response rating, Morningglory [7, 23]: 98
- Morningglory plant response rating [7, 24]: 98
- Plant response rating, Oilseed Rape [8, 18]: 80
- Plant response rating, Oilseed Rape [8, 19]: 85
- Plant response rating, Oilseed Rape [8, 20]: 95
- Plant response rating, Oilseed Rape [8, 21]: 5
- Plant response rating, Oilseed Rape [8, 22]: 90
- Plant response rating, Oilseed Rape [8, 23]: 90
- Oilseed Rape plant response rating [8, 24]: 90
- Plant response rating, Pigweed [9, 18]: 90
- Plant response rating, Pigweed [9, 19]: 98
- Plant response rating, Pigweed [9, 20]: 98
- Plant response rating, Pigweed [9, 21]: 100
- Plant response rating, Pigweed [9, 22]: 100
- Plant response rating, Pigweed [9, 23]: 100
- Pigweed plant response rating [9, 24]: 100
- Plant response rating, Ragweed [10, 18]: 90
- Plant response rating, Ragweed [10, 19]: 98
- Plant response rating, Ragweed [10, 20]: 100
- Plant response rating, Ragweed [10, 21]: 75
- Plant response rating, Ragweed [10, 22]: 90
- Plant response rating, Ragweed [10, 23]: 98
- Ragweed plant response rating [10, 24]: 98
- Plant response rating, Waterhemp [11, 18]: 85
- Plant response rating, Waterhemp [11, 19]: 90
- Plant response rating, Waterhemp [11, 20]: 98
- Plant response rating, Waterhemp [11, 21]: 75
- Plant response rating, Waterhemp [11, 22]: 90
- Plant response rating, Waterhemp [11, 23]: 100
- Waterhemp plant response rating [11, 24]: 100
